{"source": "patent US7138361B2", "about": "“Herbicidal heterocycles” (E. I. du Pont de Nemours and Company, priority 2000, dated 2006)", "assay_in_all_cases": "Test B preemergence", "format_in_all_cases": "in vivo", "key": {"[1]": {"system": "Surinam grass (Brachiaria decumbens)", "procedure,_shortened": "(§1)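 Post-treatment, species sat 13–15 days under greenhouse conditions before visual scoring against controls, 0 (no effect) through 100 (complete control). Application preemergence to sown seeds or postemergence at 1- to 4-leaf stage, using a non-phytotoxic solvent/surfactant formulation.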"}, "[2]": {"system": "barnyardgrass (Echinochloa crus-galli)", "procedure,_shortened": "as §1"}, "[3]": {"system": "cocklebur (Xanthium strumarium)", "details": "scale 0 to 100, 0 no effect, 100 complete control", "procedure,_shortened": "as §1"}, "[4]": {"system": "corn (Zea mays)", "procedure,_shortened": "as §1"}, "[5]": {"system": "crabgrass (Digitaria sanguinalis)", "procedure,_shortened": "as §1"}, "[6]": {"system": "giant foxtail (Setaria faberii)", "procedure,_shortened": "as §1"}, "[7]": {"system": "lambsquarters (Chenopodium album)", "procedure,_shortened": "as §1"}, "[8]": {"system": "morning glory (Ipomoea hederacea)", "procedure,_shortened": "as §1"}, "[9]": {"system": "pigweed (Amaranthus retroflexus)", "procedure,_shortened": "as §1"}, "[10]": {"system": "rice (Oryza saliva)", "procedure,_shortened": "as §1"}, "[11]": {"system": "velvetleaf (Abutilon theophrasti)", "procedure,_shortened": "as §1"}, "[12]": {"details": "Preemergence, Rate 500 g/ha, scale 0 to 100, 0 no effect, 100 complete control"}, "[13]": {"details": "preemergence, Rate 62 g/ha, scale of 0 to 100 where 0 is no effect and 100 is complete control, 13 to 15 days"}, "[14]": {"details": "preemergence, Rate 125 g/ha, scale 0 to 100, 0 no effect, 100 complete control"}, "[15]": {"details": "preemergence, Rate 250 g/ha, scale 0 to 100, 0 no effect, 100 complete control"}}, "data": [{"smiles": "CC1(C)CCc2cn(C3CCN(c4cccc(C(F)(F)F)c4)C3=O)nc21", "note": "(stereo not drawn) [Compound 10]", "values": [{"measurement": "Plant response rating, Surinam grass", "setting": "[1]; [12]", "value": 0}, {"measurement": "Plant response rating, Surinam grass", "setting": "[1]; [13]", "value": 20}, {"measurement": "Plant response rating, Surinam grass", "setting": "[1]; [14]", "value": 0}, {"measurement": "Plant response rating, Surinam grass", "setting": "[1]; [15]", "value": 30}, {"measurement": "Plant response rating, Barnyardgrass", "setting": "[2]; [12]", "value": 0}, {"measurement": "Plant response rating, Barnyardgrass", "setting": "[2]; [13]", "value": 0}, {"measurement": "Plant response rating, Barnyardgrass", "setting": "[2]; [14]", "value": 0}, {"measurement": "Plant response rating, Barnyardgrass", "setting": "[2]; [15]", "value": 100}, {"measurement": "Plant response rating, Cocklebur", "setting": "[3]; Preemergence, Rate 500 g/ha", "value": 0}, {"measurement": "Plant response rating, Cocklebur", "setting": "[3]; preemergence, Rate 125 g/ha", "value": 0}, {"measurement": "Plant response rating, Cocklebur", "setting": "[3]; preemergence, Rate 250 g/ha", "value": 0}, {"measurement": "Plant response rating, Corn", "setting": "[4]; [12]", "value": 0}, {"measurement": "Plant response rating, Corn", "setting": "[4]; [13]", "value": 0}, {"measurement": "Plant response rating, Corn", "setting": "[4]; [14]", "value": 0}, {"measurement": "Plant response rating, Corn", "setting": "[4]; [15]", "value": 30}, {"measurement": "Plant response rating, Crabgrass", "setting": "[5]; [12]", "value": 0}, {"measurement": "Plant response rating, Crabgrass", "setting": "[5]; [13]", "value": 100}, {"measurement": "Plant response rating, Crabgrass", "setting": "[5]; [14]", "value": 0}, {"measurement": "Plant response rating, Crabgrass", "setting": "[5]; [15]", "value": 100}, {"measurement": "Plant response rating, Foxtail, Giant", "setting": "[6]; [12]", "value": 0}, {"measurement": "Plant response rating, Foxtail, Giant", "setting": "[6]; [13]", "value": 80}, {"measurement": "Plant response rating, Foxtail, Giant", "setting": "[6]; [14]", "value": 0}, {"measurement": "Plant response rating, Foxtail, Giant", "setting": "[6]; [15]", "value": 100}, {"measurement": "Plant response rating, Lambsquarters", "setting": "[7]; [12]", "value": 0}, {"measurement": "Plant response rating, Lambsquarters", "setting": "[7]; [13]", "value": 100}, {"measurement": "Plant response rating, Lambsquarters", "setting": "[7]; [14]", "value": 0}, {"measurement": "Plant response rating, Lambsquarters", "setting": "[7]; [15]", "value": 100}, {"measurement": "Plant response rating, Morningglory", "setting": "[8]; [12]", "value": 0}, {"measurement": "Plant response rating, Morningglory", "setting": "[8]; [13]", "value": 0}, {"measurement": "Plant response rating, Morningglory", "setting": "[8]; [14]", "value": 0}, {"measurement": "Plant response rating, Morningglory", "setting": "[8]; [15]", "value": 0}, {"measurement": "Plant response rating, Pigweed", "setting": "[9]; [12]", "value": 0}, {"measurement": "Plant response rating, Pigweed", "setting": "[9]; [13]", "value": 90}, {"measurement": "Plant response rating, Pigweed", "setting": "[9]; [14]", "value": 0}, {"measurement": "Plant response rating, Pigweed", "setting": "[9]; [15]", "value": 100}, {"measurement": "Plant response rating, Rice", "setting": "[10]; [12]", "value": 0}, {"measurement": "Plant response rating, Rice", "setting": "[10]; [13]", "value": 0}, {"measurement": "Plant response rating, Rice", "setting": "[10]; [14]", "value": 0}, {"measurement": "Plant response rating, Rice", "setting": "[10]; [15]", "value": 0}, {"measurement": "Plant response rating, Velvetleaf", "setting": "[11]; [12]", "value": 0}, {"measurement": "Plant response rating, Velvetleaf", "setting": "[11]; [13]", "value": 0}, {"measurement": "Plant response rating, Velvetleaf", "setting": "[11]; [14]", "value": 0}, {"measurement": "Plant response rating, Velvetleaf", "setting": "[11]; [15]", "value": 0}]}, {"smiles": "CCC(C)c1ccn(C2OCN(c3cccc(C(F)(F)F)c3)C2=O)n1", "note": "(stereo not drawn) [Compound 24]", "values": [{"measurement": "Plant response rating, Surinam grass", "setting": "[1]; [12]", "value": 80}, {"measurement": "Plant response rating, Surinam grass", "setting": "[1]; [14]", "value": 20}, {"measurement": "Plant response rating, Barnyardgrass", "setting": "[2]; [12]", "value": 100}, {"measurement": "Plant response rating, Barnyardgrass", "setting": "[2]; [14]", "value": 20}, {"measurement": "Plant response rating, Cocklebur", "setting": "[3]; Preemergence, Rate 500 g/ha", "value": 0}, {"measurement": "Plant response rating, Cocklebur", "setting": "[3]; preemergence, Rate 125 g/ha", "value": 0}, {"measurement": "Plant response rating, Corn", "setting": "[4]; [12]", "value": 20}, {"measurement": "Plant response rating, Corn", "setting": "[4]; [14]", "value": 0}, {"measurement": "Plant response rating, Crabgrass", "setting": "[5]; [12]", "value": 100}, {"measurement": "Plant response rating, Crabgrass", "setting": "[5]; [14]", "value": 100}, {"measurement": "Plant response rating, Foxtail, Giant", "setting": "[6]; [12]", "value": 100}, {"measurement": "Plant response rating, Foxtail, Giant", "setting": "[6]; [14]", "value": 90}, {"measurement": "Plant response rating, Lambsquarters", "setting": "[7]; [12]", "value": 100}, {"measurement": "Plant response rating, Lambsquarters", "setting": "[7]; [14]", "value": 100}, {"measurement": "Plant response rating, Morningglory", "setting": "[8]; [12]", "value": 0}, {"measurement": "Plant response rating, Morningglory", "setting": "[8]; [14]", "value": 0}, {"measurement": "Plant response rating, Pigweed", "setting": "[9]; [12]", "value": 100}, {"measurement": "Plant response rating, Pigweed", "setting": "[9]; [14]", "value": 100}, {"measurement": "Plant response rating, Rice", "setting": "[10]; [12]", "value": 0}, {"measurement": "Plant response rating, Rice", "setting": "[10]; [14]", "value": 0}, {"measurement": "Plant response rating, Velvetleaf", "setting": "[11]; [12]", "value": 0}, {"measurement": "Plant response rating, Velvetleaf", "setting": "[11]; [14]", "value": 0}]}, {"smiles": "Cc1ccn(C2CCN(c3cccc(C(F)(F)F)c3)C2=O)n1", "note": "(stereo not drawn) [Compound 16]", "values": [{"measurement": "Plant response rating, Surinam grass", "setting": "[1]; [12]", "value": 0}, {"measurement": "Plant response rating, Surinam grass", "setting": "[1]; [14]", "value": 0}, {"measurement": "Plant response rating, Barnyardgrass", "setting": "[2]; [12]", "value": 0}, {"measurement": "Plant response rating, Barnyardgrass", "setting": "[2]; [14]", "value": 0}, {"measurement": "Plant response rating, Cocklebur", "setting": "[3]; Preemergence, Rate 500 g/ha", "value": 0}, {"measurement": "Plant response rating, Cocklebur", "setting": "[3]; preemergence, Rate 125 g/ha", "value": 0}, {"measurement": "Plant response rating, Corn", "setting": "[4]; [12]", "value": 0}, {"measurement": "Plant response rating, Corn", "setting": "[4]; [14]", "value": 0}, {"measurement": "Plant response rating, Crabgrass", "setting": "[5]; [12]", "value": 0}, {"measurement": "Plant response rating, Crabgrass", "setting": "[5]; [14]", "value": 0}, {"measurement": "Plant response rating, Foxtail, Giant", "setting": "[6]; [12]", "value": 0}, {"measurement": "Plant response rating, Foxtail, Giant", "setting": "[6]; [14]", "value": 0}, {"measurement": "Plant response rating, Lambsquarters", "setting": "[7]; [12]", "value": 0}, {"measurement": "Plant response rating, Lambsquarters", "setting": "[7]; [14]", "value": 0}, {"measurement": "Plant response rating, Morningglory", "setting": "[8]; [12]", "value": 0}, {"measurement": "Plant response rating, Morningglory", "setting": "[8]; [14]", "value": 0}, {"measurement": "Plant response rating, Pigweed", "setting": "[9]; [12]", "value": 0}, {"measurement": "Plant response rating, Pigweed", "setting": "[9]; [14]", "value": 0}, {"measurement": "Plant response rating, Rice", "setting": "[10]; [12]", "value": 0}, {"measurement": "Plant response rating, Rice", "setting": "[10]; [14]", "value": 0}, {"measurement": "Plant response rating, Velvetleaf", "setting": "[11]; [12]", "value": 20}, {"measurement": "Plant response rating, Velvetleaf", "setting": "[11]; [14]", "value": 0}]}]}
